In article PMC8303187, “Anti-Inflammatory Effects of Compounds from Cudrania tricuspidata in HaCaT Human Keratinocytes” (International Journal of Molecular Sciences, 2021):

Tests used:
Type in all cases: cell-based, human
[1] = tested on: p38 phosphorylation in HaCaT cells; assay: p38 phosphorylation in TNF-α + IFN-γ-treated HaCaT cells (Western blotting); details: HaCaT cells pretreated 3 h, then TNF-α + IFN-γ (20 ng/mL) 6 h; Western blot
Procedure: (§1) Stimulation of keratinocytes with TNF-α + IFN-γ upregulates various MAPK signaling pathways. To evaluate the anti-inflammatory effects of the six compounds from C. tricuspidata on the MAPK pathway, Western blotting analysis was used to determine the phosphorylation levels of JNK1/2, ERK1/2, and p38 in TNF-α + IFN-γ-treated HaCaT cells. Cells were pretreated with the six compounds from C. tricuspidata at the indicated concentrations for 3 h, and then stimulated with TNF-α + IFN-γ (20 ng/mL) for either 15 min, 2 h, or 6 h. Following the treatment with TNF-α + IFN-γ for 2 h, the phosphorylation of JNK1/2 was not inhibited by any of the six compounds (Figure 6A,B). After 15 min of treatment with TNF-α + IFN-γ, ERK1/2 phosphorylation was inhibited only by compound 14 (Figure 6C,D). The phosphorylation of p38 was inhibited only by compounds 13 and 4 after 6 h of treatment with TNF-α + IFN-γ (Figure 6E,F). […]
(§2) Figure 6 Effect of the six compounds from C. tricuspidata on JNK-1/2, ERK-1/2, and p38 phosphorylation in HaCaT cells. […] Cell extracts were analyzed using Western blotting and antibodies specific for phosphorylated JNK1/2 (p-JNK1/2), p-ERK1/2, or p-p38. […] Immunoblots were quantified using ImageJ software. The band intensity was quantified and normalized to each total protein concentration. * p < 0.05, ** p < 0.01, and *** p < 0.001 compared with TNF-α + IFN-γ only. […]

[2] = tested on: COX-2 protein expression in HaCaT cells; assay: COX-2 protein expression in TNF-α + IFN-γ-treated HaCaT cells (Western blotting); details: HaCaT cells pre-incubated 3 h (5–80 μM), then TNF-α + IFN-γ (20 ng/mL) 24 h; Western blot
Description: (§3) ICAM-1 is expressed in keratinocytes and is critical for the development of many skin diseases, such as contact dermatitis and lichen planus. Cyclooxygenase (COX) is the enzyme responsible for the conversion of arachidonic acid to prostaglandin H2, which is the main step in the prostaglandin synthesis pathway. COX-2 expression plays a key role in skin inflammation. In this experiment, the anti-inflammatory effects of the six compounds from C. tricuspidata on the expression of pro-inflammatory proteins were investigated in TNF-α + IFN-γ-treated HaCaT cells. Briefly, cells were pre-incubated for 3 h with or without the six compounds from C. tricuspidata (5–80 μM) and were subsequently challenged with TNF-α + IFN-γ (20 ng/mL) for 24 h. […]
(§4) Figure 4 Protein expression levels of COX-2 (A,B) and ICAM-1 (C,D) in TNF-α + IFN-γ-treated HaCaT cells. […] The immunoblot was quantified using ImageJ software. […]
(§5) Cells were harvested and pelleted via centrifugation at 200× g for 3 min, washed with PBS, and lysed in 20 mM Tris-HCl buffer (pH 7.4) containing a protease inhibitor mixture (0.1 mM phenylmethanesulfonyl fluoride, 5 mg/mL aprotinin, 5 mg/mL pepstatin A, and 1 mg/mL chymostatin). The protein concentration was determined using a protein assay dye reagent concentrate (#5000006; Bio-Rad Laboratories, Hercules, CA, USA). […]

[3] = tested on: ICAM-1 protein expression in HaCaT cells; assay: ICAM-1 protein expression in TNF-α + IFN-γ-treated HaCaT cells (Western blotting); details: HaCaT cells pre-incubated 3 h (5–80 μM), then TNF-α + IFN-γ (20 ng/mL) 6 h; Western blot
Description: as §3, with “[…] Previous studies have reported that compound 6 inhibits” for “Briefly, cells were pre-incubated for 3 h with or without”, “expression of COX-2 [55]; however, this study is the first to report the inhibition of COX-2 protein production by compound 6 in HaCaT cells.” for “six compounds from C. tricuspidata (5–80 μM) and were subsequently challenged with TNF-α + IFN-γ (20 ng/mL) for 24 h.”
as §4, §5

[4] = tested on: ERK1/2 phosphorylation in HaCaT cells; assay: ERK1/2 phosphorylation in TNF-α + IFN-γ-treated HaCaT cells (Western blotting); details: HaCaT cells pretreated 3 h, then TNF-α + IFN-γ (20 ng/mL) 15 min; Western blot
Procedure: as §1, §2

Row | Structure (SMILES) | phosphorylation of p38 [1] | expression level of COX-2 [2] | ICAM-1 expression [3] | ERK1/2 phosphorylation [4]
1 | C=CC(C)(C)c1c(OC)cc2oc3cc(O)c(O)cc3c(=O)c2c1O [Compound 13, 1,6,7-trihydroxy-2-(1,1-dimethyl-2-propenyl)-3-methoxyxanthone] | inhibited |  |  | 
2 | CC(C)=CCc1c(O)cc2c(c1O)C(=O)C[C@@H](c1ccc(O)cc1O)O2 [Compound 4, cudraflavanone B] | inhibited |  |  | 
3 | CC(C)=CCc1c(O)cc2oc(-c3ccc(O)cc3O)c(CC=C(C)C)c(=O)c2c1O [Compound 6, cudraflavone C] |  | decreased | particularly effective | 
4 | C=CC(C)(C)c1c(O)cc(O)c2c(=O)c3cc(O)c(O)cc3oc12 [Compound 14, cudratricusxanthone L] |  | decreased | particularly effective | inhibited
